Experimental data as given in publication PMC7567334 (Environmental Health Perspectives, 2020).
“Also recorded” adds a separate entry of the source.

Legend:
[1] = target: T1, human (h)AR (Homo sapiens, UniProt P10275); assay: AR-EcoScreen hAR transcriptional activation assay, agonist setup; assay type: cell-based
T1 sequence (P10275 1-920): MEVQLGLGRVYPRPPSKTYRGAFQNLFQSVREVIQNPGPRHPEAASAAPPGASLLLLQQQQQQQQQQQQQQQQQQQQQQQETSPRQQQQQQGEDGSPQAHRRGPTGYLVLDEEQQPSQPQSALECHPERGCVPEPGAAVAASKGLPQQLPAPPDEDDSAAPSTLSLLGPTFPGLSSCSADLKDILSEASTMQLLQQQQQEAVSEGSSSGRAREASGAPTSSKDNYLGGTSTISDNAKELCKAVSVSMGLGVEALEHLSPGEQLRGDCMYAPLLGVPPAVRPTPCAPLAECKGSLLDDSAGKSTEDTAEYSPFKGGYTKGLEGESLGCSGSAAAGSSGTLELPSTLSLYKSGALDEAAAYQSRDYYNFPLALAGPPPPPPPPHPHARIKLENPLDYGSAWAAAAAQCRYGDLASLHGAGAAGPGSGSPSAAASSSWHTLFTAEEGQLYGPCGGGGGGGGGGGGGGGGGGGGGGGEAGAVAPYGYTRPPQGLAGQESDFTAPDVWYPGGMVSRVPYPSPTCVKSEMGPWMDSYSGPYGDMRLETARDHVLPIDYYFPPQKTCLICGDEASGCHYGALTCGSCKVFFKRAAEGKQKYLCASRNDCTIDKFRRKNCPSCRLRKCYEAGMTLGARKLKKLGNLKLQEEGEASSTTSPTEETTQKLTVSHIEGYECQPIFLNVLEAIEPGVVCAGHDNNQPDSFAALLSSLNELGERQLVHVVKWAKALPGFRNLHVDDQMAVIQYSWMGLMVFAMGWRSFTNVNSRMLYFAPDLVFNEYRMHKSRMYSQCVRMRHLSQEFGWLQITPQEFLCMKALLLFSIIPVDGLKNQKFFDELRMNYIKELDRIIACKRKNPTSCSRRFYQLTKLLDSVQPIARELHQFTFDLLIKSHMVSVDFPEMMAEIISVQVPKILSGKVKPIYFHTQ

[2] = target: T2, AR (Rattus norvegicus, UniProt P15207); assay: PolarScreen AR Competitor binding affinity assay; settings: in words; tested up to 10 μM
T2 construct: purchased Invitrogen
T2 sequence (P15207 651-902 limits assumed): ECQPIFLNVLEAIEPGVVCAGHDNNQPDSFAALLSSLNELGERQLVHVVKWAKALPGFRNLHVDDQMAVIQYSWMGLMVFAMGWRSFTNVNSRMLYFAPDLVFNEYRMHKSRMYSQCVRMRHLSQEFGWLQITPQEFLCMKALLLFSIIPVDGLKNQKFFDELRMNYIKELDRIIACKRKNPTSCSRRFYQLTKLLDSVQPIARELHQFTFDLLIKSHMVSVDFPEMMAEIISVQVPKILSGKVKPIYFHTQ

[3] = test system: TRα and TRβ; assay: GH3.TRE-Luc TR reporter assay, agonist setup; assay type: cell-based, rat; settings: 1 μM; vs 0.1% DMSO
[4] = test system: TRα and TRβ; assay: GH3.TRE-Luc TR reporter assay, antagonist setup (0.25 nM T3); assay type: cell-based, rat
[5] = target: T3, human (h) ERα (Homo sapiens, UniProt P03372); settings: test for false positivity
T3 sequence (P03372 1-595): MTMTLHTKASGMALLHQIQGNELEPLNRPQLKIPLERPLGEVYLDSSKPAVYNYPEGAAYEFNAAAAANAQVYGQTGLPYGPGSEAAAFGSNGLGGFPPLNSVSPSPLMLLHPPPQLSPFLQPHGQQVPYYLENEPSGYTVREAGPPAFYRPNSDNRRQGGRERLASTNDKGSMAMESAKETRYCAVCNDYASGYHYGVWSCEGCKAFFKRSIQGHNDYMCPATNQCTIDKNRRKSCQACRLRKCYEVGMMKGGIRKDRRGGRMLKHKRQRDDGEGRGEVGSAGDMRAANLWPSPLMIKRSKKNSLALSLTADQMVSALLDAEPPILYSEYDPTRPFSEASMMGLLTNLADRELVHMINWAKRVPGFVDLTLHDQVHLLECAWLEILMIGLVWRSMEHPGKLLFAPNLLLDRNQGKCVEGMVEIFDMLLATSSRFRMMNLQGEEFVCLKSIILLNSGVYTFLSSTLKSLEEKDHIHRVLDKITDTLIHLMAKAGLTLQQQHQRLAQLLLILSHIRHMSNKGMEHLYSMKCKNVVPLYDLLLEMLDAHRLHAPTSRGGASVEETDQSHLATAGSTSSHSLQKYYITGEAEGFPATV

[6] = test system: Estrogen receptor-α; settings: cited from earlier work
[7] = test system: Glucocorticoid receptor; settings: ref Kolšek et al. 2014a, cited from earlier work
[8] = ref Schebb et al. 2012, cited from earlier work
[9] = target: T3, human (h) ERα; assay: hERα-HeLa-9903 transactivation assay, agonist setup; assay type: cell-based; design: host or cells: hERα-HeLa-9903 (HeLa derived); settings: for higher ERα RTA than vehicle control: vs 0.1% DMSO
[10] = test system: AR-EcoScreen cells; assay: Cell viability (resazurin) in AR-EcoScreen cells; settings: agonist assay
[11] = BG1-ERE cells, ref Ahn et al. 2008

## O=C(Nc1ccc(Cl)cc1)Nc1ccc(Cl)c(Cl)c1 [Triclocarban, 1-(4-Chlorophenyl)-3-(3,4-dichlorophenyl) urea]
[1]; 1 μM, vs 0.1% DMSO
  higher AR RTA than vehicle control: 40.4%
[1]; 2.5 μM, vs 0.1% DMSO
  higher AR RTA over vehicle control: 30.3%
[1]; AR-EcoScreen
  AR agonist activity, call: Agonist
  concentration with AR agonist activity: 1 to 2.5 µM
[2]
  binding affinity assay on isolated AR, result: did not show binding; also recorded: No binding; also recorded: negative
[3]
  baseline TR-mediated transcriptional activity lower than vehicle control (agonist setup): > 50%
[4]; 1 μM, vs 0.1% DMSO with 0.25 nM T3
  lower TR RTA than spike-in control: 44.3%
[4]; GH3.TRE-Luc
  TR antagonist activity, call: Antagonist
  concentration with TR antagonist activity: 1 µM
[5]
  estrogenic effect in presence of ER antagonist 10 μM hydroxytamoxifen: blocked all
[6]; [11]
  effect on ER with β-estradiol: Enhancer of β-estradiol activity in BG1-ERE cells ([Ahn et al. 2008])
  effect on ER, compound alone: Agonist in BG1-ERE cells ([Ahn et al. 2008])
[6]; hERα-HeLa-9903 cells, ref Tarnow et al. 2013
  effect on ERα: Enhancer of β-estradiol activity in hERα-HeLa-9903 cells ([Tarnow et al. 2013])
[7]; MDA-kb2 cells
  effect on GR with HC: Enhancer of HC activity in MDA-kb2 cells ([Kolšek et al. 2014a])
[7]
  concentration with enhanced HC activity on GR: 2 µM
[8]
  time of plasma peak after exposure: ≤ 48 h
[8]; six healthy volunteers, triclocarban-containing soaps
  peak plasma concentration: 23 to 530 nM
[9]; 1 μM
  higher ERα RTA than vehicle control: 53%
[9]; 5 μM
  higher ERα RTA than vehicle control: 58%
[9]; hERα-HeLa-9903
  ERα agonist activity, call: Agonist
  concentration with ERα agonist activity: 1 to 5 µM
[10]
  highest noncytotoxic concentration: 2.5 µM
